The values that follow come from patent publication US6498179B1, “Oxazole derivatives, their production and use” (Takeda Chemical Industries, Ltd., priority 1996, dated 2002).

One data set deals with KKA^y mice. The data set is described as follows: Test for blood sugar depression in mice. The conditions noted are these: Mus musculus, 1 h; fasted male KKA^y mice, oral 30 mg/kg, 60 minutes after administration, compared with control group; read-out: Degree of Blood Glucose Depression (%) After 60 minutes. In kind it is in vivo. The method, then:
After being fasted for 20 hours, 9- to 12-week-old, male KKA^y mice (five mice in each group) were orally given the test compound at a dose of 30 mg/kg/10 ml through a stomach tube. Control mice were orally given 5% gum arabic solution. Blood samples (70 μl) were obtained from orbital venous plexus through capillary tube before and 60 and 120 minutes after the administration of the test compound. Blood glucose was determined according to a glucose oxidase method using a commercial kit (Iatrochem, GIU(A), Iatron Labs. Inc.). Blood glucose level at 60 or 120 minutes of the test groups was compared with that of control group, and was shown as blood glucose depression (%) (Table 1).
Consider `O=C(O)CCc1oc(Sc2ccccn2)nc1-c1ccc(Cl)cc1` [Example 15, 4-(4-chlorophenyl)-2-(2-pyridylthio)-5-oxazolepropionic acid], for which the inhibition in vivo at 30 mg/kg came to 22%. Same read-out and setting: next, `Cc1nccn1-c1nc(-c2ccc(Cl)cc2)c(CCC(=O)O)o1` [Example 25, 4-(4-chlorophenyl)-2-(2-methyl-1-imidazolyl)-5-oxazolepropionic acid]: 38%; `CCc1nccn1-c1nc(-c2ccc(Cl)cc2)c(CCC(=O)O)o1` [Example 26, 4-(4-chlorophenyl)-2-(2-ethyl-1-imidazolyl)-5-oxazolepropionic acid]: 32%; `O=C(O)CCc1oc(-n2cccn2)nc1-c1ccc(Cl)cc1` [Example 28, 4-(4-chlorophenyl)-2-(1-pyrazolyl)-5-oxazolepropionic acid]: 24%.

For `CC(C)c1nccn1-c1nc(-c2ccc(Cl)cc2)c(CCC(=O)O)o1` [Example 31, 4-(4-chlorophenyl)-2-(2-isopropyl-1-imidazolyl)-5-oxazolepropionic acid], the inhibition in vivo at 30 mg/kg was 27%.

Staying with this data set, now noted: Mus musculus, 2 h; fasted male KKA^y mice, oral 30 mg/kg, 120 minutes after administration, compared with control group; read-out: Degree of Blood Glucose Depression (%) After 120 minutes.
As to `O=C(O)CCc1oc(Sc2ccccn2)nc1-c1ccc(Cl)cc1` [Example 15, 4-(4-chlorophenyl)-2-(2-pyridylthio)-5-oxazolepropionic acid], the inhibition in vivo at 30 mg/kg came out at 26%.

As to `Cc1nccn1-c1nc(-c2ccc(Cl)cc2)c(CCC(=O)O)o1` [Example 25, 4-(4-chlorophenyl)-2-(2-methyl-1-imidazolyl)-5-oxazolepropionic acid], the inhibition in vivo at 30 mg/kg stood at 27%. Still for that read-out and setting: next, `CCc1nccn1-c1nc(-c2ccc(Cl)cc2)c(CCC(=O)O)o1` [Example 26, 4-(4-chlorophenyl)-2-(2-ethyl-1-imidazolyl)-5-oxazolepropionic acid]: 27%.

Turning to `O=C(O)CCc1oc(-n2cccn2)nc1-c1ccc(Cl)cc1` [Example 28, 4-(4-chlorophenyl)-2-(1-pyrazolyl)-5-oxazolepropionic acid], the inhibition in vivo at 30 mg/kg stood at 33%. Same read-out and setting: next, `CC(C)c1nccn1-c1nc(-c2ccc(Cl)cc2)c(CCC(=O)O)o1` [Example 31, 4-(4-chlorophenyl)-2-(2-isopropyl-1-imidazolyl)-5-oxazolepropionic acid]: 28%.

Tested on in another data set: not given
Experiment: not given
Settings: not given
In turn, `Cc1nccn1-c1nc(-c2ccc(Cl)cc2)c(CCC(=O)NCCCl)o1` had a melting point of 155 to 156 °C. The same measure, in the same setting: next, `Cc1nccn1-c1nc(-c2ccc(Cl)cc2)c(CCCC(=O)NCCCl)o1`: 131 to 132 °C. Take `Cc1nccn1-c1nc(-c2ccc(Cl)cc2)c(CCCCCn2ccnc2)o1.Cl.Cl.O` (hydrate or solvate): the melting point lay within 197 to 199 °C. Molecule `COC(=O)CCc1oc(Cl)nc1-c1ccc(Cl)cc1` [Example 1, methyl 2-chloro-4-(4-chlorophenyl)-5-oxazolepropionate] had a melting point of 71 to 72 °C.

With `O=C(O)CCc1oc(Cl)nc1-c1ccc(Cl)cc1` [Example 2, 2-chloro-4-(4-chlorophenyl)-5-oxazolepropionic acid], the melting point was 169 to 170 °C. For the molecule `CCOc1nc(-c2ccc(Cl)cc2)c(CCC(=O)O)o1` [Example 3, 4-(4-chlorophenyl)-2-ethoxy-5-oxazolepropionic acid], the melting point lay in the range of 148 to 149 °C. `CC(C)Oc1nc(-c2ccc(Cl)cc2)c(CCC(=O)O)o1` [Example 4, 4-(4-chlorophenyl)-2-isopropoxy-5-oxazolepropionic acid] had a melting point of 116 to 117 °C. `O=C(O)CCc1oc(Oc2ccccc2)nc1-c1ccc(Cl)cc1` [Example 5, 4-(4-chlorophenyl)-2-phenoxy-5-oxazolepropionic acid]: the melting point was 136 to 137 °C.

On to `CSc1nc(-c2ccc(Cl)cc2)c(CCC(=O)O)o1` [Example 6, 4-(4-chlorophenyl)-2-methylthio-5-oxazolepropionic acid], for which the melting point fell in the range of 183 to 184 °C. `CC(C)Sc1nc(-c2ccc(Cl)cc2)c(CCC(=O)O)o1` [Example 7, 4-(4-chlorophenyl)-2-isopropylthio-5-oxazolepropionic acid]: the melting point was 132 to 133 °C. Regarding `O=C(O)CCc1oc(SCc2ccccn2)nc1-c1ccc(Cl)cc1` [Example 8, 4-(4-chlorophenyl)-2-(2-pyridylmethylthio)-5-oxazolepropionic acid], the melting point was 125 to 126 °C. On to `O=C(O)CCc1oc(SCc2cccnc2)nc1-c1ccc(Cl)cc1` [Example 9, 4-(4-chlorophenyl)-2-(3-pyridylmethylthio)-5-oxazolepropionic acid], for which the melting point lay in the range of 129 to 130 °C.

`O=C(O)CCc1oc(Sc2ccccc2)nc1-c1ccc(Cl)cc1` [Example 10, 4-(4-chlorophenyl)-2-phenylthio-5-oxazolepropionic acid] showed a melting point of 156 to 157 °C.

In the case of `Cc1ccc(Sc2nc(-c3ccc(Cl)cc3)c(CCC(=O)O)o2)cc1` [Example 11, 4-(4-chlorophenyl)-2-(4-methylphenylthio)-5-oxazolepropionic acid], the melting point fell in the range of 160 to 161 °C. `CNc1nc(-c2ccc(Cl)cc2)c(CCC(=O)O)o1` [Example 16, 4-(4-chlorophenyl)-2-methylamino-5-oxazolepropionic acid] returned a melting point of 217 to 218 °C. Turning to `O=C(O)CCc1oc(N2CCOCC2)nc1-c1ccc(Cl)cc1` [Example 18, 4-(4-chlorophenyl)-2-morpholino-5-oxazolepropionic acid], the melting point lay within 180 to 181 °C. Still for that read-out and setting: next, `O=C(O)CCc1oc(-n2ccnc2)nc1-c1ccc(Cl)cc1` [Example 24, 4-(4-chlorophenyl)-2-(1-imidazolyl)-5-oxazolepropionic acid]: 194 to 195 °C.

`CCCc1nccn1-c1nc(-c2ccc(Cl)cc2)c(CCC(=O)O)o1` [Example 30, 4-(4-chlorophenyl)-2-(2-propyl-1-imidazolyl)-5-oxazolepropionic acid] returned a melting point of 174 to 175 °C. Same read-out and setting: next, `Cc1nccn1-c1nc(-c2ccc(Cl)cc2)c(CCC(N)=O)o1` [Example 41, 4-(4-chlorophenyl)-2-(2-methyl-1-imidazolyl)-5-oxazolepropionamide]: 215 to 216 °C. Take `Cc1nccn1-c1nc(-c2ccc(Cl)cc2)c(CCC2=NCCO2)o1` [Example 46, 4-(4-chlorophenyl)-2-(2-methyl-1-imidazolyl)-5-[2-(2-oxazolin-2-yl)ethyl]oxazole]: the melting point lay in the range of 119 to 120 °C. The same measure, in the same setting: next, `CCc1nccn1-c1nc(-c2ccc(Cl)cc2)c(CCC2=NCCO2)o1` [Example 50, 4-(4-chlorophenyl)-2-(2-ethyl-1-imidazolyl)-5-[2-(2-oxazolin-2-yl)ethyl]oxazole]: 53 to 54 °C; `CCOC(=O)CCc1oc(-n2ccnc2C)nc1-c1ccc(Cl)cc1` [Example 52, ethyl 4-(4-chlorophenyl)-2-(2-methyl-1-imidazolyl)-5-oxazolepropionate]: 70 to 71 °C; `OCCCc1oc(-n2ccnc2)nc1-c1ccc(Cl)cc1` [Example 57, 4-(4-chlorophenyl)-2-(1-imidazolyl)-5-oxazolepropanol]: 114 to 115 °C. On the same count and under the same terms, next, `Cc1nccn1-c1nc(-c2ccc(Cl)cc2)c(CCC2=NCCS2)o1` [Example 60, 4-(4-chlorophenyl)-2-(2-methyl-1-imidazolyl)-5-[2-(2-thiazolin-2-yl)ethyl]oxazole]: 73 to 74 °C; `O=C(O)CCCc1oc(Cl)nc1-c1ccc(Cl)cc1` [Example 62, 2-chloro-4-(4-chlorophenyl)-5-oxazolebutyric acid]: 211 to 212 °C. Still for that read-out and setting: next, `CCOC(=O)CCCc1oc(-n2ccnc2C)nc1-c1ccc(Cl)cc1` [Example 64, ethyl 4-(4-chlorophenyl)-2-(2-methyl-1-imidazolyl)-5-oxazolebutyrate]: 72 to 73 °C; `Cc1nccn1-c1nc(-c2ccc(Cl)cc2)c(CCCC2=NCCO2)o1` [Example 67, 4-(4-chlorophenyl)-2-(2-methyl-1-imidazolyl)-5-[3-(2-oxazolin-2-yl)propyl]oxazole]: 88 to 89 °C; `CON(C)C(=O)CCc1oc(-n2ccnc2C)nc1-c1ccc(Cl)cc1` [Example 68, N-methoxy-N-methyl-4-(4-chlorophenyl)-2-(2-methyl-1-imidazolyl)-5-oxazolepropionamide]: 116 to 117 °C.

In turn, `Cc1nccn1-c1nc(-c2ccc(Cl)cc2)c(CCC=O)o1` [Example 69, 4-(4-chlorophenyl)-2-(2-methyl-1-imidazolyl)-5-oxazolepropionaldehyde] came in with a melting point of 109 to 110 °C.

The molecule `Cc1nccn1-c1nc(-c2ccc(Cl)cc2)c(CCC2NCCS2)o1` (stereo not shown) [Example 70, 2-[2-[4-(4-chlorophenyl)-2-(2-methyl-1-imidazolyl)-5-oxazolyl]ethyl]thiazolidine] showed a melting point of 110 to 111 °C. In turn, `Cc1nccn1-c1nc(-c2ccc(Cl)cc2)c(CCCOS(C)(=O)=O)o1` [Example 71, 3-[4-(4-chlorophenyl)-2-(2-methyl-1-imidazolyl)-5-oxazolyl]propyl methanesulfonate] returned a melting point of 97 to 98 °C.

Turning to `Cc1nccn1-c1nc(-c2ccc(Cl)cc2)c(CCO)o1` [Example 78, 4-(4-chlorophenyl)-2-(2-methyl-1-imidazolyl)-5-oxazolethanol], the melting point was in the range of 159 to 160 °C. Same read-out and setting: next, `CCOC(=O)CCCCc1oc(-n2ccnc2C)nc1-c1ccc(Cl)cc1` [Example 81, ethyl 4-(4-chlorophenyl)-2-(2-methyl-1-imidazolyl)-5-oxazolepentanoate]: 93 to 94 °C; `Cc1nccn1-c1nc(-c2ccc(Cl)cc2)c(CCCCCCO)o1` [Example 84, 4-(4-chlorophenyl)-2-(2-methyl-1-imidazolyl)-5-oxazolehexanol]: 70 to 71 °C; `Cc1nccn1-c1nc(-c2ccc(Cl)cc2)c(CCCCn2cncn2)o1` [Example 88, 1-[4-[4-(4-chlorophenyl)-2-(2-methyl-1-imidazolyl)-5-oxazolyl]butyl]1,2,4-triazole]: 74 to 75 °C. On the same count and under the same terms, next, `CCOC(=O)c1nccn1CCCCc1oc(-n2ccnc2C)nc1-c1ccc(Cl)cc1` [Example 92, ethyl 1-[4-[4-(4-chlorophenyl)-2-(2-methyl-1-imidazolyl)-5-oxazolyl]butyl]-2-imidazolecarboxylate]: 134 to 135 °C.
